Drawing on patent publication US20110224210A1, “NOVEL BIS-AMIDES AS ANTI-MALARIAL AGENTS” (priority 2008, published 2011), this text covers IC50 for 21 compounds.

The assay has as its system P. falciparum K1 (strain resistant to chloroquine and pyrimethamine), erythrocytic stages. In words: Plasmodium falciparum in vitro assay, [3H] hypoxanthine incorporation. The note with it: Plasmodium falciparum, K1, P. falciparum strain K1; [3H] hypoxanthine incorporation; read-out: IC50 (nM) on K1. The format is cell-based. The method in brief:
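K1 strain parasites grown in human red cells, 2.5% haematocrit, 0.3% parasitaemia, 37 °C, 4% CO2/3% O2; compounds in seven serial doubling dilutions.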

In the case of `CN(CCN(C)C(=O)[C@H](Cc1ccccc1)N(Cc1ccc(-c2ccccn2)cc1)C(=O)C=Cc1ccc(C(F)(F)F)cc1)Cc1ccc(CO)o1` [Example 228, (S)-N-[1-({2-[(5-Hydroxymethyl-furan-2-ylmethyl)-methyl-amino]-ethyl}-methyl-carbamoyl)-2-phenyl-ethyl]-N-(4-pyridin-2-yl-benzyl)-3-(4-trifluoromethyl-phenyl)-acrylamide], the IC50 was 9 nM.

Regarding `COc1ccc(CN(C)CCN(C)C(=O)[C@H](Cc2ccccc2)N(Cc2ccc(-c3ccccn3)cc2)C(=O)C=Cc2ccc(C(F)(F)F)cc2)cn1` [Example 229, (S)-N-[1-({2-[(6-Methoxy-pyridin-3-ylmethyl)-methyl-amino]-ethyl}-methyl-carbamoyl)-2-phenyl-ethyl]-N-(4-pyridin-2-yl-benzyl)-3-(4-trifluoromethyl-phenyl)-acrylamide], the IC50 worked out at 9 nM. The figure for `CN(CCN(C)C(=O)[C@H](Cc1ccccc1)N(Cc1ccc(-c2ccccn2)cc1)C(=O)C=Cc1ccc(C(F)(F)F)cc1)Cc1ccc(C(F)(F)F)nc1` [Example 230, (S)-N-[1-(Methyl-{2-[methyl-(6-trifluoromethyl-pyridin-3-ylmethyl)-amino]-ethyl}-carbamoyl)-2-phenyl-ethyl]-N-(4-pyridin-2-yl-benzyl)-3-(4-trifluoromethyl-phenyl)-acrylamide] is 10 nM.

For `CN(CCN(C)C(=O)[C@H](Cc1ccccc1)N(Cc1ccc(-c2ccccn2)cc1)C(=O)C=Cc1ccc(C(F)(F)F)cc1)Cc1cccnc1` [Example 231, (S)-N-(1-{Methyl-[2-(methyl-pyridin-3-ylmethyl-amino)-ethyl]-carbamoyl}-2-phenyl-ethyl)-N-(4-pyridin-2-yl-benzyl)-3-(4-trifluoromethyl-phenyl)-acrylamide], the IC50 is 30 nM. The figure for `CN(CCN(C)C(=O)[C@H](Cc1ccccc1)N(Cc1ccc(-c2ccccn2)cc1)C(=O)C=Cc1ccc(C(F)(F)F)cc1)Cc1ccsc1` [Example 232, (S)-N-(1-{Methyl-[2-(methyl-thiophen-3-ylmethyl-amino)-ethyl]-carbamoyl}-2-phenyl-ethyl)-N-(4-pyridin-2-yl-benzyl)-3-(4-trifluoromethyl-phenyl)-acrylamide] is 33 nM; for `Cc1ccccc1CN(C)CCN(C)C(=O)[C@H](Cc1ccccc1)N(Cc1ccc(-c2ccccn2)cc1)C(=O)C=Cc1ccc(C(F)(F)F)cc1` [Example 233, (S)-N-[1-(Methyl-{2-[methyl-(2-methyl-benzyl)-amino]-ethyl}-carbamoyl)-2-phenyl-ethyl]-N-(4-pyridin-2-yl-benzyl)-3-(4-trifluoromethyl-phenyl)-acrylamide] it is 53 nM.

As to `Cc1ccc(CN(C)CCN(C)C(=O)[C@H](Cc2ccccc2)N(Cc2ccc(-c3ccccn3)cc2)C(=O)C=Cc2ccc(C(F)(F)F)cc2)c(C)c1` [Example 234, (S)-N-[1-({2-[(2,4-Dimethyl-benzyl)-methyl-amino]-ethyl}-methyl-carbamoyl)-2-phenyl-ethyl]-N-(4-pyridin-2-yl-benzyl)-3-(4-trifluoromethyl-phenyl)-acrylamide], the IC50 worked out at 64 nM.

For the compound `COc1cc(CN(C)CCN(C)C(=O)[C@H](Cc2ccccc2)N(Cc2ccc(N3CCOCC3)cc2)C(=O)C=Cc2ccc(C(F)(F)F)cc2)cc(OC)c1` [Example 235, (S)-N-[1-({2-[(3,5-Dimethoxy-benzyl)-methyl-amino]-ethyl}-methyl-carbamoyl)-2-phenyl-ethyl]-N-(4-morpholin-4-yl-benzyl)-3-(4-trifluoromethyl-phenyl)-acrylamide], the IC50 came out at 58 nM. `COc1cc(CN(C)CCN(C)C(=O)[C@H](Cc2ccccc2)N(Cc2ccc(N3CCN(C(C)=O)CC3)cc2)C(=O)C=Cc2ccc(C(F)(F)F)cc2)cc(OC)c1` [Example 236, (S)-N-[4-(4-Acetyl-piperazin-1-yl)-benzyl]-N-[1-({2-[(3,5-dimethoxy-benzyl)-methyl-amino]-ethyl}-methyl-carbamoyl)-2-phenyl-ethyl]-3-(4-trifluoromethyl-phenyl)-acrylamide]: the IC50 was 68 nM. Take `CC(=O)N1CCN(c2ccc(CN(C(=O)C=Cc3ccc(C(F)(F)F)cc3)[C@@H](Cc3ccccc3)C(=O)N(C)CCN(C)Cc3ccc(N(C)CCO)cc3)cc2)CC1` [Example 237, (S)-N-[4-(4-Acetyl-piperazin-1-yl)-benzyl]-N-(1-{[2-({4-[(2-hydroxy-ethyl)-methyl-amino]-benzyl}-methyl-amino)-ethyl]-methyl-carbamoyl}-2-phenyl-ethyl)-3-(4-trifluoromethyl-phenyl)-acrylamide]: the IC50 came out at 55 nM. As for `CC(=O)N1CCN(c2ccc(CN(C(=O)C=Cc3ccc(C(F)(F)F)cc3)[C@@H](Cc3ccccc3)C(=O)N(C)CCN(C)Cc3ccc(O)cc3)cc2)CC1` [Example 238, (S)-N-[4-(4-Acetyl-piperazin-1-yl)-benzyl]-N-[1-({2-[(4-hydroxy-benzyl)-methyl-amino]-ethyl}-methyl-carbamoyl)-2-phenyl-ethyl]-3-(4-trifluoromethyl-phenyl)-acrylamide], the half-inhibitory concentration (IC50) amounted to 27 nM. Then `CCN(CC)c1ccc(CN(C)CCN(C)C(=O)[C@H](Cc2ccccc2)N(Cc2ccc(N3CCN(C(C)=O)CC3)cc2)C(=O)C=Cc2ccc(C(F)(F)F)cc2)cc1` [Example 239, (S)-N-[4-(4-Acetyl-piperazin-1-yl)-benzyl]-N-[1-({2-[(4-diethylamino-benzyl)-methyl-amino]-ethyl}-methyl-carbamoyl)-2-phenyl-ethyl]-3-(4-trifluoromethyl-phenyl)-acrylamide], with 61 nM; and `CC(=O)N1CCN(c2ccc(CN(C(=O)C=Cc3ccc(C(F)(F)F)cc3)[C@@H](Cc3ccccc3)C(=O)N(C)CCN(C)Cc3cccc(O)c3)cc2)CC1` [Example 240, (S)-N-[4-(4-Acetyl-piperazin-1-yl)-benzyl]-N-[1-({2-[(3-hydroxy-benzyl)-methyl-amino]-ethyl}-methyl-carbamoyl)-2-phenyl-ethyl]-3-(4-trifluoromethyl-phenyl)-acrylamide], with 28 nM. For the compound `CC(=O)N1CCN(c2ccc(CN(C(=O)C=Cc3ccc(C(F)(F)F)cc3)[C@@H](Cc3ccccc3)C(=O)N(C)CCN(C)Cc3cccnc3)cc2)CC1` [Example 241, (S)-N-[4-(4-Acetyl-piperazin-1-yl)-benzyl]-N-(1-{methyl-[2-(methyl-pyridin-3-ylmethyl-amino)-ethyl]-carbamoyl}-2-phenyl-ethyl)-3-(4-trifluoromethyl-phenyl)-acrylamide], the IC50 was 27 nM. Then `CC(=O)N1CCN(c2ccc(CN(C(=O)C=Cc3ccc(C(F)(F)F)cc3)[C@@H](Cc3ccccc3)C(=O)N(C)CCN(C)Cc3cccc(OCCO)c3)cc2)CC1` [Example 242, (S)-N-[4-(4-Acetyl-piperazin-1-yl)-benzyl]-N-{1-[(2-{[3-(2-hydroxy-ethoxy)-benzyl]-methyl-amino}-ethyl)-methyl-carbamoyl]-2-phenyl-ethyl}-3-(4-trifluoromethyl-phenyl)-acrylamide], with 14 nM. Turning to `CC(=O)N1CCN(c2ccc(CN(C(=O)C=Cc3ccc(C(F)(F)F)cc3)[C@@H](Cc3ccccc3)C(=O)N(C)CCN(C)Cc3cccc(C#N)c3)cc2)CC1` [Example 243, (S)-N-[4-(4-Acetyl-piperazin-1-yl)-benzyl]-N-[1-({2-[(3-cyano-benzyl)-methyl-amino]-ethyl}-methyl-carbamoyl)-2-phenyl-ethyl]-3-(4-trifluoromethyl-phenyl)-acrylamide], the IC50 was 52 nM. The figure for `CC(=O)N1CCN(c2ccc(CN(C(=O)C=Cc3ccc(C(F)(F)F)cc3)[C@@H](Cc3ccccc3)C(=O)N(C)CCN(C)Cc3ccc(OC(C)C)cc3)cc2)CC1` [Example 244, (S)-N-[4-(4-Acetyl-piperazin-1-yl)-benzyl]-N-[1-({2-[(4-isopropoxy-benzyl)-methyl-amino]-ethyl}-methyl-carbamoyl)-2-phenyl-ethyl]-3-(4-trifluoromethyl-phenyl)-acrylamide] is 19 nM; for `CC(=O)N1CCN(c2ccc(CN(C(=O)C=Cc3ccc(C(F)(F)F)cc3)[C@@H](Cc3ccccc3)C(=O)N(C)CCN(C)Cc3ccc4c(c3)OCCN4C)cc2)CC1` [Example 245, (S)-N-[4-(4-Acetyl-piperazin-1-yl)-benzyl]-N-[1-(methyl-{2-[methyl-(4-methyl-3,4-dihydro-2H-benzo[1,4]oxazin-7-ylmethyl)-amino]-ethyl}-carbamoyl)-2-phenyl-ethyl]-3-(4-trifluoromethyl-phenyl)-acrylamide] it is 87 nM; for `CC(=O)N1CCN(c2ccc(CN(C(=O)C=Cc3ccc(C(F)(F)F)cc3)[C@@H](Cc3ccccc3)C(=O)N(C)CCN(C)Cc3ccc(OCCCN(C)C)cc3)cc2)CC1` [Example 246, (S)-N-[4-(4-Acetyl-piperazin-1-yl)-benzyl]-N-{1-[(2-{[4-(3-dimethylamino-propoxy)-benzyl]-methyl-amino}-ethyl)-methyl-carbamoyl]-2-phenyl-ethyl}-3-(4-trifluoromethyl-phenyl)-acrylamide] it is 64 nM. The figure for `COc1ccc(CN(C)CCN(C)C(=O)[C@H](Cc2ccccc2)N(Cc2ccc(N3CCN(C(C)=O)CC3)cc2)C(=O)C=Cc2ccc(C(F)(F)F)cc2)cn1` [Example 247, (S)-N-[4-(4-Acetyl-piperazin-1-yl)-benzyl]-N-[1-({2-[(6-methoxy-pyridin-3-ylmethyl)-methyl-amino]-ethyl}-methyl-carbamoyl)-2-phenyl-ethyl]-3-(4-trifluoromethyl-phenyl)-acrylamide] is 26 nM; for `CC(=O)N1CCN(c2ccc(CN(C(=O)C=Cc3ccc(C(F)(F)F)cc3)[C@@H](Cc3ccccc3)C(=O)N(C)CCN(C)Cc3nccs3)cc2)CC1` [Example 248, (S)-N-[4-(4-Acetyl-piperazin-1-yl)-benzyl]-N-(1-{methyl-[2-(methyl-thiazol-2-ylmethyl-amino)-ethyl]-carbamoyl}-2-phenyl-ethyl)-3-(4-trifluoromethyl-phenyl)-acrylamide] it is 21 nM.
